Assay results from PMC11191095, “QSAR Reveals Decreased Lipophilicity of Polar Residues Determines the Selectivity of Antimicrobial Peptide Activity” (ACS Omega, 2024).
Where a SMILES comes first, the peptide text is derived from it.

Tests used:
[1] = tested on: human erythrocytes; assay: In vitro hemolytic activity; type: cell-based; settings: human erythrocytes in PBS, 1 h, 37 °C, OD550, from dose response curves
Method: Potential erythrocyte hemolysis was tested by incubating serial dilutions of the AMPs in PBS with freshly collected erythrocytes at a ratio of 1:1 in 96-well polypropylene V-shape plates for 1 h at 37 °C. Control wells were treated with 0.1% Triton-X-100 to ensure complete lysis or PBS-only to represent no lysis. The erythrocytes were collected by centrifugation and the OD550 of the supernatant was measured using a plate reader. The percentage hemolysis was calculated as [drawing 1] 1 where Apeptide is the absorbance value of erythrocytes exposed to a known peptide concentration, Agrowth control is the absorbance of erythrocytes exposed to 0.1% Triton-X-100 and Ablank is the absorbance of erythrocytes exposed to the PBS. The concentrations at which a peptide caused 10% (HC10) and 50% (HC50) hemolysis was determined from the dose response curves.

[2] = tested on: P. aeruginosa PAO1; assay: microbe, parasite or virus in culture; type: cell-based, Pseudomonas aeruginosa; settings: P. aeruginosa PAO1 (S)
In short: (§1)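 Peptides 128→2 μg/mL, 2-fold series; inoculum ~5 × 10^5 CFU/mL from overnight culture (OD600 0.01, mixed 1:1). MHB non-cation-adjusted for bacteria, RPMI 1640 + 2% glucose for fungi. 37 °C, 20 h, OD600. MIC50/MIC90 at 50%/90% inhibition; n ≥ 3.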

[3] = tested on: P. aeruginosa NCTC 13437; assay: microbe, parasite or virus in culture; type: cell-based, Pseudomonas aeruginosa; settings: P. aeruginosa NCTC 13437 (R); shown in µM
In short: as §1

[4] = tested on: C. auris TDG 1912; assay: microbe, parasite or virus in culture; type: cell-based, Candida auris; settings: C. auris TDG 1912
In short: as §1

[5] = tested on: C. krusei NCPF 3876; assay: microbe, parasite or virus in culture; type: cell-based; settings: C. krusei NCPF 3876; shown in µM
In short: as §1

[6] = tested on: C. albicans NCPF 3281; assay: microbe, parasite or virus in culture; type: cell-based; settings: C. albicans NCPF 3281; shown in µM
In short: as §1

[7] = tested on: C. glabrata NCPF 8018; assay: microbe, parasite or virus in culture; type: cell-based; settings: C. glabrata NCPF 8018
In short: as §1

[8] = tested on: C. tropicalis NCPF 8760; assay: microbe, parasite or virus in culture; type: cell-based; settings: C. tropicalis NCPF 8760; shown in µM
In short: as §1

[9] = tested on: C. parapsilosis NCPF 3209; assay: microbe, parasite or virus in culture; type: cell-based; settings: C. parapsilosis NCPF 3209; shown in µM
In short: as §1

[10] = tested on: K. pneumoniae NCTC 13368; assay: microbe, parasite or virus in culture; type: cell-based, Klebsiella pneumoniae; settings: K. pneumoniae NCTC 13368 (R); shown in µM
In short: as §1

[11] = tested on: K. pneumoniae M6; assay: microbe, parasite or virus in culture; type: cell-based, Klebsiella pneumoniae; settings: K. pneumoniae M6 (S); shown in µM
In short: as §1

[12] = tested on: E. coli LEC001; assay: microbe, parasite or virus in culture; type: cell-based, Escherichia coli; settings: E. coli LEC001 (R); shown in µM
In short: as §1

[13] = tested on: E. coli NCTC 12923; assay: microbe, parasite or virus in culture; type: cell-based, Escherichia coli; settings: E. coli NCTC 12923 (S); shown in µM
In short: as §1

[14] = tested on: A. baumannii ATCC 17978; assay: microbe, parasite or virus in culture; type: cell-based, Acinetobacter baumannii; settings: A. baumannii ATCC 17978 (S); shown in µM
In short: as §1

[15] = tested on: A. baumannii AYE; assay: microbe, parasite or virus in culture; type: cell-based, Acinetobacter baumannii; settings: A. baumannii AYE (R); shown in µM
In short: as §1

[16] = tested on: S. aureus (MRSA) NCTC 13616; assay: microbe, parasite or virus in culture; type: cell-based, Staphylococcus aureus; settings: S. aureus (MRSA) NCTC 13616 (R); shown in µM
In short: as §1

[17] = tested on: S. aureus (MRSA) 1199B; assay: microbe, parasite or virus in culture; type: cell-based, Staphylococcus aureus; settings: S. aureus (MRSA) 1199B (R); shown in µM
In short: as §1

[18] = tested on: S. aureus (MRSA) USA300; assay: microbe, parasite or virus in culture; type: cell-based, Staphylococcus aureus; settings: S. aureus (MRSA) USA300 (R); shown in µM
In short: as §1

[19] = tested on: S. aureus (MSSA) ATCC 9144; assay: microbe, parasite or virus in culture; type: cell-based, Staphylococcus aureus; settings: S. aureus (MSSA) ATCC 9144 (S); shown in µM
In short: as §1

[20] = tested on: HaCat cell line; assay: In vitro HaCat cytotoxicity (MTT); type: cell-based, human; settings: 21 h exposure, OD570, relative to untreated control
Method: The HaCat cell line (Cellonex, South Africa) was cultured in Dulbecco’s Modified Eagle Medium (DMEM) supplemented with 10% heat-inactivated fetal calf serum (FCS) and 1% antibiotic-antimycotic (Abs) and maintained at 5–10% CO2, 37 °C, 95% humidity. For cytotoxicity screening, 5.56 × 10^4 cells/mL were plated in a 96-well plate. After 24 h incubation, the cells are initially exposed to each peptide at a concentration of 256 μg/mL or 0.1% Triton-X-100 as the control for 21 h. If cytotoxicity was observed, at a level of significance of p < 0.0001 compared with the untreated control after 21 h, a dose-response assay was undertaken. Cell viability was determined by adding 10% 3-(4,5-dimethyl-2-thiazolyl)-2,5-diphenyl-2H-tetrazolium bromide (MTT) (1 mg/mL), to each well and after a further 3 h incubation the media was discarded, and the formazan crystals dissolved by adding 25% DMSO in ethanol. The absorbance was measured at OD570 by using the FLUOstar Omega multidetection microplate reader (BMG Labtech). Percentage cell viability was calculated relative to the untreated control. The LC50 was defined as the concentration of AMP treatment that results in 50% lethality of HaCat cells and was determined from the dose-response curves.

[21] = 50% growth inhibition, RPMI 1640 + 2% glucose, 37 °C, 20 h, OD600
[22] = 90% growth inhibition, RPMI 1640 + 2% glucose, 37 °C, 20 h, OD600

Structure (SMILES)	HC10 (concentration causing 10% hemolysis) [1]	HC50 (concentration causing 50% hemolysis) [1]	Modal MIC ([2]; shown in µM)	Modal MIC [3]	Modal MIC50 [4, 21]	Modal MIC90 [4, 22]	Modal MIC50 ([4]; shown in µM)	Modal MIC90 ([4]; shown in µM)	Modal MIC50 [5]	Modal MIC90 [5]	Modal MIC50 [6]	Modal MIC90 [6]	Modal MIC50 ([7]; shown in µM)	Modal MIC90 ([7]; shown in µM)	Modal MIC50 [8]	Modal MIC90 [8]	Modal MIC50 [9]	Modal MIC90 [9]	Modal MIC [10]	Modal MIC [11]	also measured
CC[C@H](C)[C@H](NC(=O)[C@H](C)NC(=O)[C@H](CCCCN)NC(=O)[C@@H]1CCCN1C(=O)[C@@H](NC(=O)[C@H](CC(C)C)NC(=O)[C@H](CCCCN)NC(=O)[C@H](Cc1ccccc1)NC(=O)[C@H](CC(C)C)NC(=O)[C@@H](N)Cc1ccccc1)[C@@H](C)CC)C(=O)N[C@@H](CCCCN)C(=O)N[C@@H](CCCCN)C(=O)N[C@@H](CC(C)C)C(=O)N[C@H](C(=O)N[C@@H](CO)C(=O)N[C@@H](CCCCN)C(=O)N[C@@H](Cc1ccccc1)C(=O)N[C@@H](CCCCN)C(N)=O)[C@@H](C)CC [AamAP1-Lysa] (H-FLFKLIPKAIKKLISKFK-NH2)	53 µg/mL	256 µg/mL	7.2 µM	7.2 µM	> 128 µg/mL	> 128 µg/mL	> 57.8 µM	> 57.8 µM	7.2 µM	7.2 µM	14.4 µM	28.8 µM	57.8 µM	57.8 µM	0.9 µM	0.9 µM	14.4 µM	14.4 µM	3.6 µM	3.6 µM	Modal MIC [12]: 3.6 µM; Modal MIC [13]: 1.8 µM; Modal MIC [14]: 0.9 µM; Modal MIC [15]: 1.8 µM; Modal MIC [16]: 0.9 µM; Modal MIC [17]: 1.8 µM; Modal MIC [18]: 1.8 µM; Modal MIC [19]: 1.8 µM; % HaCat cell death at initial screening (256μg/mL) ± SD [20]: 94.8 ± 8.2%
CC[C@H](C)[C@H](NC(=O)[C@H](C)NC(=O)[C@H](CCCCN)NC(=O)[C@@H]1CCCN1C(=O)[C@@H](NC(=O)[C@H](CC(C)C)NC(=O)[C@H](CO)NC(=O)[C@H](Cc1ccccc1)NC(=O)[C@H](CC(C)C)NC(=O)[C@@H](N)Cc1ccccc1)[C@@H](C)CC)C(=O)NCC(=O)NCC(=O)N[C@@H](CC(C)C)C(=O)N[C@H](C(=O)N[C@@H](CO)C(=O)N[C@@H](C)C(=O)N[C@@H](Cc1ccccc1)C(=O)N[C@@H](CCCCN)C(N)=O)[C@@H](C)CC [AamAP-S1a]	45 µg/mL	112 µg/mL	> 64.8 µM	64.8 µM	> 128 µg/mL	> 128 µg/mL	> 64.8 µM	> 64.8 µM	32.4 µM	32.4 µM	64.8 µM	64.8 µM	> 64.8 µM	> 64.8 µM	8.1 µM	8.1 µM	64.8 µM	64.8 µM	32.4 µM	32.4 µM	HC50 (concentration causing 50% hemolysis) ([1]; listed as AamAP1-S1a): lower than 256 µg/mL; Modal MIC ([2]; MHB, 37 °C, 20 h, OD600, min. three biological repeats): > 128 µg/mL; Modal MIC50 ([7]; 50% growth inhibition, RPMI 1640 + 2% glucose, 37 °C, 20 h): > 128 µg/mL; Modal MIC90 ([7]; 90% growth inhibition, RPMI 1640 + 2% glucose, 37 °C, 20 h): > 128 µg/mL; Modal MIC [12]: 8.1 µM; Modal MIC [13]: 8.1 µM; Modal MIC [14]: 4.1 µM; Modal MIC [15]: 4.1 µM; Modal MIC [16]: 4.1 µM; Modal MIC [17]: 2 µM; Modal MIC [18]: 4.1 µM; Modal MIC [19]: 2 µM; % HaCat cell death at initial screening (256μg/mL) ± SD [20]: 97.6 ±12.6%
